Results taken from US8871753B2, “Macrocyclic compounds and their use as kinase inhibitors” (Incyte Corporation, priority 2008, dated 2014).
pIC50: −log10 of the molar value. Structures can show the parent of a compound that is named as a salt. Where two headings read alike, the source gives them in different places.

Experiments:
Type in all cases: biochemical
[1] = biological target: T1, human JAK1 (a.a. 837-1142) (Homo sapiens, UniProt P23458); experiment: In vitro JAK kinase assay (HTRF, phosphorylation of a biotinylated peptide), JAK1; settings: read-out: JAK1 IC50
T1 construct: human JAK1 (a.a. 837-1142); His tag (N); made in house; host or cells: insect cells (baculovirus)
T1 sequence (P23458 849-1154): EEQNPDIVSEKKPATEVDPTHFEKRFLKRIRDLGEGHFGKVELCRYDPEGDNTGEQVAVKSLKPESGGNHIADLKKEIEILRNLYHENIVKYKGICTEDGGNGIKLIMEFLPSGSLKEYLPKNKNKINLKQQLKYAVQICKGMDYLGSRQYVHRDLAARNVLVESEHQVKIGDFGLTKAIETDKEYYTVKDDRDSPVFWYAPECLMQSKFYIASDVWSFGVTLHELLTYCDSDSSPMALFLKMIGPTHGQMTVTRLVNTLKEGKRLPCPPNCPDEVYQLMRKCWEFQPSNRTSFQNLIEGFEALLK
Outline: (§1)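 Kinase reactions ran at room temperature for 1 h with ATP matched per isoform (JAK1 90 μM, JAK2 30 μM, JAK3 3 μM). After an EDTA stop, the phosphorylated biotin-peptide was read by HTRF using Eu-Py20 and SA-APC after 40 min binding.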

[2] = biological target: T2, human JAK2 (a.a. 828-1132) (Homo sapiens, UniProt O60674); experiment: In vitro JAK kinase assay (HTRF, phosphorylation of a biotinylated peptide), JAK2
T2 construct: JAK2 (a.a. 828-1132); His tag (N); made in house; host or cells: insect cells (baculovirus)
T2 sequence (O60674 828-1132): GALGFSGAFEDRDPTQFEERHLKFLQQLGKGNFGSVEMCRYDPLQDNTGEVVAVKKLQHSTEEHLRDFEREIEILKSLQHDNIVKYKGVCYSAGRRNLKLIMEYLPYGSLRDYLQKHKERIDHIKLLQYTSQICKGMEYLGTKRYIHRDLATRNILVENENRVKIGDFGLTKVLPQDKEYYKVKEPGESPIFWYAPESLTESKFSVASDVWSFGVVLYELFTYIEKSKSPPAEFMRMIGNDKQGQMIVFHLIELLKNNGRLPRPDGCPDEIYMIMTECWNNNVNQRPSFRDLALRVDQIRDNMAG
Outline: as §1

[3] = biological target: T3, human JAK3 (a.a. 781-1124) (Homo sapiens, UniProt P52333); experiment: In vitro JAK kinase assay (HTRF, phosphorylation of a biotinylated peptide), JAK3
T3 construct: JAK3 (a.a. 781-1124); His tag (N); made in house; host or cells: insect cells (baculovirus)
T3 sequence (P52333 781-1124): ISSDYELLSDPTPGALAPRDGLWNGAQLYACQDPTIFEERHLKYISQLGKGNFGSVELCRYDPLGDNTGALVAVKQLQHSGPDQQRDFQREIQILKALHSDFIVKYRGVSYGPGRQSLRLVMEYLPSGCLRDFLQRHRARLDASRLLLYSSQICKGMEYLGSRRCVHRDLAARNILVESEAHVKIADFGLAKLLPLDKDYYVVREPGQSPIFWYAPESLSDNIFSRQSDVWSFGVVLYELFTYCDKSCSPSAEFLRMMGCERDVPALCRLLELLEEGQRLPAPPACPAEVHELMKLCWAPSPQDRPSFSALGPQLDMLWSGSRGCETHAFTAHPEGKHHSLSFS
Outline: as §1

TYK2 = TYK2 (Homo sapiens, UniProt P29597); experiment: TYK2 kinase inhibition (Table A1)
Sequence of TYK2 (P29597 whole entry): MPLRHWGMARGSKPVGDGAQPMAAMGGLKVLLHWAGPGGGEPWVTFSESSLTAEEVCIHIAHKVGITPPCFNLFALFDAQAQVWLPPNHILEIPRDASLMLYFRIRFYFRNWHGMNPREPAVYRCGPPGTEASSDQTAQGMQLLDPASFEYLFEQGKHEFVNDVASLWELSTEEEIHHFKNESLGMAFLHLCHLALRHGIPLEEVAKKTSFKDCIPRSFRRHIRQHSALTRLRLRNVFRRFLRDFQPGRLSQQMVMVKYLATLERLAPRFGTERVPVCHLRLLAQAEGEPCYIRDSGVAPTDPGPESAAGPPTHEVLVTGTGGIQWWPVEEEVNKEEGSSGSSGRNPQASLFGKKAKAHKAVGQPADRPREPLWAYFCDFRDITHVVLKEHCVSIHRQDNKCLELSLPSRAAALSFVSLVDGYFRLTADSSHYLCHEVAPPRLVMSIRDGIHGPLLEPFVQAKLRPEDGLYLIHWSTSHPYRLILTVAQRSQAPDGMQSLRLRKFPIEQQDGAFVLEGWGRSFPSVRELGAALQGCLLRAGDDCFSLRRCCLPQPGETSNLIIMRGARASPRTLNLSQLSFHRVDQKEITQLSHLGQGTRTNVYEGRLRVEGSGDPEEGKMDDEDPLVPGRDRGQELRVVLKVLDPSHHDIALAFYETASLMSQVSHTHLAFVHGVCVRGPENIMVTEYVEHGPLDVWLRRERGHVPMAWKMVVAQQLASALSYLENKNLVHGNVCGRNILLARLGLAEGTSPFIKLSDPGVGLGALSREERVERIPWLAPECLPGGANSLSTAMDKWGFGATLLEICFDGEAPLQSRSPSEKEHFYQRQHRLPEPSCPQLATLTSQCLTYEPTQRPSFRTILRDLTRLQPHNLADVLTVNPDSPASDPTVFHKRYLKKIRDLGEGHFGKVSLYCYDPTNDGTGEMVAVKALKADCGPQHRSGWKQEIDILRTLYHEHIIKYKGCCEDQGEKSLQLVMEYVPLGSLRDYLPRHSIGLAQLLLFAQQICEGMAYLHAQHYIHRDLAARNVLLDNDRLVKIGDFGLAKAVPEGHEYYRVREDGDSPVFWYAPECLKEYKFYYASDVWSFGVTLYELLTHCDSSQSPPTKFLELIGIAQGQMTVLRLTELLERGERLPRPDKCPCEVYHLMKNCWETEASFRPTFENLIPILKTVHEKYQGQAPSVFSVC

[4] = biological target: T4, Recombinant Human Anaplastic Lymphoma Kinase (Homo sapiens, UniProt Q9UM73); experiment: ALK HTRF kinase assay; settings: for pIC50: Table B1, cells without percent sign
T4 construct: purchased Invitrogen, Carlsbad, Calif
T4 sequence (Q9UM73 19-1620): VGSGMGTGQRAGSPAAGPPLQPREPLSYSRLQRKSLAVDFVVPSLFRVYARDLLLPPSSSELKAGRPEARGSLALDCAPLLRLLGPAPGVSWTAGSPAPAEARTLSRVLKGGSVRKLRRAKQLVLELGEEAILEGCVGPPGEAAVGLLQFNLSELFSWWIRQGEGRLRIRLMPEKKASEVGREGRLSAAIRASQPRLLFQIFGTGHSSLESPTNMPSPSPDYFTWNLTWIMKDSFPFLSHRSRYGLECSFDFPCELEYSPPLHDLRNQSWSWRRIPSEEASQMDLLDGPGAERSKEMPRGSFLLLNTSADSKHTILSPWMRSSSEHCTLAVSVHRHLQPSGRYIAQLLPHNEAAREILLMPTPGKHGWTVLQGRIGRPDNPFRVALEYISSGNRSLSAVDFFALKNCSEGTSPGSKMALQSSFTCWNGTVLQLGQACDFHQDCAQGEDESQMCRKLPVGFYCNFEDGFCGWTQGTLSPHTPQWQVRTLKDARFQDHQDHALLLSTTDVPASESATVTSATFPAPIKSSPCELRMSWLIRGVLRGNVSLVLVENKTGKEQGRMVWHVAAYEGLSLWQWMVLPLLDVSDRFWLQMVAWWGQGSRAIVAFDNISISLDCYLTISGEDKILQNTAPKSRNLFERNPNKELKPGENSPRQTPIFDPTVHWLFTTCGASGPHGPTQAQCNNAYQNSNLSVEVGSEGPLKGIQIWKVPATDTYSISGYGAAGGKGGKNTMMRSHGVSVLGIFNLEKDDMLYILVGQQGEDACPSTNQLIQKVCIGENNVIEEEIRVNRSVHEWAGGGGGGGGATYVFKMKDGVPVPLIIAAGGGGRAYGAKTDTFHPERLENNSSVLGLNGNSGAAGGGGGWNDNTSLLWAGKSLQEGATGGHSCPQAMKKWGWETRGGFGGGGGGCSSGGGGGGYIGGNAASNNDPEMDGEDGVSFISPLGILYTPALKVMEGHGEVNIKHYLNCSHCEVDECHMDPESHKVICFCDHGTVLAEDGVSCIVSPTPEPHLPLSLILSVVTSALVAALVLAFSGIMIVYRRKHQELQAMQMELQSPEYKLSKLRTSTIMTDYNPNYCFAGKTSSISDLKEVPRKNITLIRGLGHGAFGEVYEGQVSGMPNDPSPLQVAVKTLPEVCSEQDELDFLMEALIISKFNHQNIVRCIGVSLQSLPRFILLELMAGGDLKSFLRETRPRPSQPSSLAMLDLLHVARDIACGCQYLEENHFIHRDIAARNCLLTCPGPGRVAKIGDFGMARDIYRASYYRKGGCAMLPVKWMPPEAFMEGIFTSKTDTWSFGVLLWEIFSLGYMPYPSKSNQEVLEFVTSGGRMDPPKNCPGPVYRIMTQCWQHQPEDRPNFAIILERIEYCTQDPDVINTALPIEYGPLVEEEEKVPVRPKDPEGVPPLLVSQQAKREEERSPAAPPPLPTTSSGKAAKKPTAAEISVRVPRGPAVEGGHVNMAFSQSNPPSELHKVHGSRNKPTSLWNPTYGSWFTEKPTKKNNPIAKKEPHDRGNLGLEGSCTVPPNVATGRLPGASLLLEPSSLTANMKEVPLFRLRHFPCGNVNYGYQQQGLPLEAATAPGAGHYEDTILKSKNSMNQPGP
Outline: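 IC50 was obtained from a logistic fit of signal versus log inhibitor concentration, using pre- and post-transition baselines and a Hill slope. The signal reported tyrosine phosphorylation of a biotinylated peptide by recombinant human kinase, detected as Eu-to-APC energy transfer.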

[5] = method AA1 (90 μM ATP) or AA2 (1000 μM ATP), not stated per value
[6] = method AA1 (30 μM ATP) or AA2 (1000 μM ATP), not stated per value
[7] = method AA1 (3 μM ATP) or AA2 (1000 μM ATP), not stated per value
[8] = compound at 500 nM or 1 mM, 90 μM ATP
[9] = compound at a concentration of 500 nM or 1 mM (not specified), cells shown as percentage

Compound	pIC50 ([1]; Table B1)	pIC50 ([2]; Table B1)	pIC50 ([3]; Table B1)	pIC50 (TYK2; Table B1)	pIC50 [4]	pIC50 [1, 5]	pIC50 [2, 6]	pIC50 [3, 7]	pIC50 (TYK2)	ALK % of inhibition at a concentration of 500 nM or 1 mM [4, 8]	ALK % of inhibition at a concentration of 500 nM or 1 mM [4, 9]	ALK % of inhibition at a concentration of 500 nM or 1 mM ([4]; percentage inhibition of the example compound at a concentration of 500 nM or 1 mM (not specified which))
Cc1cc(C(=O)N2CCC(CC(=O)Nc3ccc4cc3CCc3cccc(c3)Nc3ncc(Cl)c(n3)N4)CC2)n[nH]1 [Example A175, N-[6-Chloro-2,4,8,22-tetraazatetracyclo[14.3.1.1(3,7).1(9,13)]docosa-1(20),3(22),4,6,9(21),10,12,16,18-nonaen-12-yl]-2-{1-[(5-methyl-1H-pyrazol-3-yl)carbonyl]piperidin-4-yl}acetamide bis(trifluoroacetate)]						9.00	7.89	< 6.70	8.74	28%		
CC(=O)N1CCC(CC(=O)Nc2ccc3cc2CCc2cncc(c2)Nc2ncc(Cl)c(n2)N3)C1 (centres unmarked) [Example A94, 2-(1-Acetylpyrrolidin-3-yl)-N-[6-chloro-2,4,8,18,22-pentaazatetracyclo[14.3.1.1(3,7).1(9,13)]docosa-1(20),3(22),4,6,9(21),10,12,16,18-nonaen-12-yl]acetamide bis(trifluoroacetate)]						7.68	7.77	7.07	7.49	26%		
O=C(COc1ccc2cc1CCc1cccc(c1)Nc1ncc(Cl)c(n1)N2)N1CCN(C(=O)Nc2ccc(Cl)nc2)CC1 [Example A10, 4-(6-Chloropyridin-3-yl)-4-({[6-chloro-2,4,8,22-tetraazatetracyclo[14.3.1.1(3,7).1(9,13)]docosa-1(20),3(22),4,6,9(21),10,12,16,18-nonaen-12-yl]oxy}acetyl)piperazine-1-carboxamide bis(trifluoroacetate)]						7.85	7.68	6.98	7.30	5%		
CS(=O)(=O)N1CCC(CC(=O)Nc2ccc3cc2CCc2cncc(c2)Nc2ncc(Cl)c(n2)N3)CC1 [Example A79, N-[6-Chloro-2,4,8,18,22-pentaazatetracyclo[14.3.1.1(3,7).1(9,13)]docosa-1(20),3(22),4,6,9(21),10,12,16,18-nonaen-12-yl]-2-[1-(methylsulfonyl)piperidin-4-yl]acetamide bis(trifluoroacetate)]						9.30	8.72	7.34	8.44	33%		
Cc1oncc1S(=O)(=O)N1CCC(CC(=O)Nc2ccc3cc2CCc2cccc(c2)Nc2ncc(Cl)c(n2)N3)CC1 [Example A210, N-[6-Chloro-2,4,8,22-tetraazatetracyclo[14.3.1.1(3,7).1(9,13)]docosa-1(20),3(22),4,6,9(21),10,12,16,18-nonaen-12-yl]-2-{1-[(5-methylisoxazol-4-yl)sulfonyl]piperidin-4-yl}acetamide trifluoroacetate]						7.46	7.05	< 6.70	< 6.70	20%		
O=C(CC1CCN(c2cnccn2)CC1)Nc1ccc2cc1CCc1cncc(c1)Nc1ncc(Cl)c(n1)N2 [Example A171, N-[6-Chloro-2,4,8,18,22-pentaazatetracyclo[14.3.1.1(3,7).1(9,13)]docosa-1(20),3(22),4,6,9(21),10,12,16,18-nonaen-12-yl]-2-(1-pyrazin-2-ylpiperidin-4-yl)acetamide tris(trifluoroacetate)]						7.92	6.93	< 6.00	6.52	29%		
O=C(Nc1ccc2cc1CCc1cccc(c1)Nc1ncc(Cl)c(n1)N2)[C@@H]1CCCN1C(=O)Nc1ccccc1 [Example A69, (2S)—N(2)-[6-Chloro-2,4,8,22-tetraazatetracyclo[14.3.1.1(3,7).1(9,13)]docosa-1(20),3(22),4,6,9(21),10,12,16,18-nonaen-12-yl]-N(1)-phenylpyrrolidine-1,2-dicarboxamide trifluoroacetate]						7.39	8.11	7.80	7.41	27%		
N#Cc1cccc(C(=O)N2CCC(CC(=O)Nc3ccc4cc3CCc3cncc(c3)Nc3ncc(Cl)c(n3)N4)CC2)c1 [Example A191, N-[6-Chloro-2,4,8,18,22-pentaazatetracyclo[14.3.1.1(3,7).1(9,13)]docosa-1(20),3(22),4,6,9(21),10,12,16,18-nonaen-12-yl]-2-[1-(3-cyanobenzoyl)piperidin-4-yl]acetamide bis(trifluoroacetate)]						7.17	< 6.70	< 6.70	< 6.70	25%		
CC(C)(C)OC(=O)N1CCC(CC(=O)Nc2ccc3cc2CCc2cncc(c2)Nc2ncc(Cl)c(n2)N3)CC1 [Example A70, tert-Butyl 4-(2-{[6-chloro-2,4,8,18,22-pentaazatetracyclo[14.3.1.1(3,7).1(9,13)]docosa-1(20),3(22),4,6,9(21),10,12,16,18-nonaen-12-yl]amino}-2-oxoethyl)piperidine-1-carboxylate bis(trifluoroacetate)]						7.70	7.24	6.71	6.96	18%		

Second part, the molecule after the results:

pIC50 ([1]; Table B1)	pIC50 ([2]; Table B1)	pIC50 ([3]; Table B1)	pIC50 (TYK2; Table B1)	pIC50 [4]	pIC50 [1, 5]	pIC50 [2, 6]	pIC50 [3, 7]	pIC50 (TYK2)	ALK % of inhibition at a concentration of 500 nM or 1 mM [4, 8]	ALK % of inhibition at a concentration of 500 nM or 1 mM [4, 9]	ALK % of inhibition at a concentration of 500 nM or 1 mM ([4]; percentage inhibition of the example compound at a concentration of 500 nM or 1 mM (not specified which))	Compound
9.25	8.77	7.57	8.28	6.11								O=C(Nc1ccccc1)Nc1ccc2cc1CCc1cccc(c1)Nc1ncc(Cl)c(n1)N2 [Example B83, N-[6-Chloro-2,4,8,22-tetraazatetracyclo[14.3.1.1(3,7).1(9,13)]docosa-1(20), 3(22),4,6,9(21),10,12,16,18-nonaen-12-yl]-N′-phenylurea trifluoroacetate]
9.09	8.96	7.77	8.59							24%		CS(=O)(=O)N1CC[C@H](NC(=O)Nc2ccc3cc2CCc2cccc(c2)Nc2ncc(Cl)c(n2)N3)C1 [Example B172, N-[6-Chloro-2,4,8,22-tetraazatetracyclo[14.3.1.1(3,7).1(9,13)]docosa-1(20),3(22),4,6,9(21),10,12,16,18-nonaen-12-yl]-N′-[(3S)-1-(methylsulfonyl)pyrrolidin-3-yl]urea trifluoroacetate]
8.32	8.23	6.44	7.21							54%		Oc1ccnc(Nc2ccc3cc2CCc2cccc(c2)Nc2ncc(Cl)c(n2)N3)n1 [Example B277, 2-{[6-Chloro-2,4,8,22-tetraazatetracyclo[14.3.1.1(3,7).1(9,13)]docosa-1(20),3(22),4,6,9(21),10,12,16,18-nonaen-12-yl]amino}pyrimidin-4-ol bis(trifluoroacetate)]
7.05	7.18	< 6.40	6.61								58%	Clc1cnc2nc1Nc1ccc(-c3cn[nH]c3)c(c1)CCc1cncc(c1)N2 [Example B350, 6-Chloro-12-(1H-pyrazol-4-yl)-2,4,8,18,22-pentaazatetracyclo[14.3.1.1(3,7).1(9,13)]docosa-1(20),3(22),4,6,9(21),10,12,16,18-nonaene tris(trifluoroacetate)]
9.31	9.89	8.96	9.28	6.82								Cc1cccc(S(=O)(=O)Nc2ccc3cc2CCc2cccc(c2)Nc2ncc(Cl)c(n2)N3)c1 [Example B148, N-[6-Chloro-2,4,8,22-tetraazatetracyclo[14.3.1.1(3,7).1(9,13)]docosa-1(20), 3(22),4,6,9(21),10,12,16,18-nonaen-12-yl]-3-methylbenzenesulfonamide trifluoroacetate]
8.40	7.38	6.51	7.21							15%		CC(=O)N1CC[C@H](NC(=O)Nc2ccc3cc2CCc2cncc(c2)Nc2ncc(Cl)c(n2)N3)C1 [Example B226, N-[(3S)-1-Acetylpyrrolidin-3-yl]-N′-[6-chloro-2,4,8,18,22-pentaazatetracyclo[14.3.1.1(3,7).1(9,13)]docosa-1(20),3(22),4,6,9(21),10,12,16,18-nonaen-12-yl]urea bis(trifluoroacetate)]
7.92	8.19	6.99	8.62							4.6%		O=S(=O)(Nc1ccc2cc1CCc1cccc(c1)Nc1ncc(Cl)c(n1)N2)c1cccc2cccnc12 [Example B160, N-[6-Chloro-2,4,8,22-tetraazatetracyclo[14.3.1.1(3,7).1(9,13)]docosa-1(20), 3(22),4,6,9(21),10,12,16,18-nonaen-12-yl]quinoline-8-sulfonamide bis(trifluoroacetate)]
